Each structure is given as a SMILES string.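 Grown in 96-well plates, cells were treated for 48 hours with each compound at five concentrations. Insufficient inhibition: endpoint recorded as highest concentration tested. The concentration for 50% growth inhibition is given as GI50. At the TGI there is no net growth.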

Holding throughout (assay): NCI anticancer screen, dose series, 48 h
Assay [1] has as its system OVCAR-5 ovarian.
Assay [2] relates to SF-539 CNS.
The test system of assay [3] is T-47D breast.
The test system of assay [4] is SK-MEL-2 melanoma.
Assay [5] has as its system NCI/ADR-RES ovarian.
The subject of assay [6] is EKVX NSCLC.
Assay [7] has as its system CAKI-1 renal.
The test system of assay [8] is HCT-116 colon.
Assay [9] concerns HCC-2998 colon.
Assay [10] relates to SNB-19 CNS.

On to `COc1ccc2[nH]cc(-c3ccc(-c4c[nH]c5ccc(OC)cc45)s3)c2c1`, for which the GI50 in assay [1] was 6.43 µM; in assay [2], 3.41 µM; in assay [3] it was 11.1 µM; in assay [4], 18.1 µM; in assay [5], 3.78 µM; in assay [6], 8.33 µM. Besides, the GI50 was 5.54 µM in [7], 3.62 µM in [8], 2.4 µM in assay [9] and 10.1 µM in assay [10]. In addition, the TGI turned out to be 18.7 µM in [1]; 10.7 µM in assay [2]; 41.5 µM in [3]; 51 µM in assay [4]; 19.5 µM in [5]; 26.9 µM in assay [6]. Further, the TGI in assay [7] came to 19 µM; in assay [8], 11.7 µM; in assay [9], 5.13 µM; in assay [10], 34.6 µM.

As to `C[C@]12CC[C@@H]3c4ccc(OC(=O)N(CCCl)CCCl)cc4CC[C@H]3[C@@H]1CC[C@@H]2O`, the GI50 in [1] was 9.98 µM; in assay [2], 1.69 µM; in [3], 4.83 µM; in assay [4], 4.31 µM; in [5], 1.92 µM; in [6], 3.26 µM. Moreover, the GI50 in assay [7] is 2.44 µM; in [8] it was 1.6 µM; in assay [9], 1.56 µM; in assay [10], 7.04 µM. Further, the TGI worked out at 4.27 µM in assay [2]; 40.7 µM in [3]; 14.8 µM in [4]; 8.81 µM in assay [5]; 10.8 µM in assay [8]; 5.16 µM in assay [9].

Turning to `CCN(Cc1cc(Nc2nc(C)cn3c(-c4cn[nH]c4)cnc23)sn1)C(C)(C)CO`, the GI50 is 0.0676 µM in [1]; 0.0179 µM in [2]; 0.0689 µM in [3]; 0.0293 µM in [4]; 1.12 µM in assay [5]; 0.578 µM in [6]. The GI50 in assay [7] is 0.0358 µM; in assay [8] it was 0.0127 µM; in assay [9], 0.0741 µM; in assay [10] it was 0.11 µM. In addition, the TGI is 10.7 µM in assay [1]; 0.118 µM in [2]; 18.5 µM in [3]; 7.35 µM in [4]; greater than 44.7 µM in assay [5]; 15.2 µM in assay [6]. The TGI was found to be 11.5 µM in assay [7], 2.3 µM in [8], 4.56 µM in assay [9] and 9.57 µM in assay [10].

On to `C[C@@]1(C(=O)O)CCC[C@]2(C)C1CC[C@@]13CC(=O)[C@@](CO)(CC[C@]12O)C3` (stereo partly specified), for which the GI50 was greater than 100 µM in [1]; greater than 100 µM in [2]; 22.2 µM in assay [3]; greater than 100 µM in assay [4]; greater than 100 µM in assay [5]; greater than 100 µM in assay [6]. Moreover, the GI50 in assay [7] is greater than 100 µM; in [8], greater than 100 µM; in [9], 50.7 µM; in assay [10] it was 90.7 µM. The TGI in [1], in assay [2], in [3], in [4], in [5] and in assay [6] was greater than 100 µM each time. For the same molecule, the TGI in [7], in [8], in assay [9] and in assay [10] was greater than 100 µM throughout.

Take `C/C(=N\NC(=S)N1CC2CCC(CC2)C1)c1nccs1`: the TGI is 15.8 µM in assay [1]; 3.57 µM in assay [2]; 14.6 µM in [3]; 15.7 µM in assay [4]; 3.9 µM in [5]; 11.9 µM in assay [6]. The TGI in [7] was found to be 14.7 µM; in assay [8], 13.4 µM; in assay [9] it was 15.9 µM; in [10], 15.1 µM.

In the case of `N#CC1(C#N)C2(c3ccccc3)OC(c3ccccc3)(c3cc4ccccc4cc32)C1(C#N)C#N`, the TGI was 29.3 µM in [1]; 29.6 µM in assay [2]; 46.5 µM in assay [3]; 37.9 µM in assay [4]; 43.8 µM in [5]; 32.1 µM in assay [6]. Moreover, the TGI in assay [7] worked out at 24.1 µM; in [8], 20 µM; in assay [9], 33.8 µM; in assay [10] it was 32.2 µM.

With `C/C=C(\C)C(=O)NC1=CC[C@@]2(C)C(=CCC3C2CC[C@@]2(C)C3CC[C@@H]2C(C)N(C)C)C1=O` (stereo partly specified), the GI50 in assay [1] was 4.78 µM; in [2], 1.62 µM; in assay [3] it was 1.94 µM; in [4] it was 7.52 µM; in [5], 6.44 µM; in assay [6], 3.17 µM. Also, the GI50 is 2.86 µM in assay [7], 1.41 µM in assay [8], 4.01 µM in assay [9] and 15.9 µM in assay [10]. Moreover, the TGI came out at 25.4 µM in assay [1]; 3.22 µM in [2]; 25.7 µM in assay [3]; 22.9 µM in assay [4]; 42.5 µM in assay [5]; 51.8 µM in [6]. The TGI in [7] was 11.4 µM; in [8], 3.1 µM; in assay [9], 15.6 µM; in [10], greater than 64.1 µM.

Consider `CCN(Cc1ccc(Cl)cc1)c1ccc(CO)c(Cl)c1`, for which the GI50 is 0.258 µM in assay [1]; 11.9 µM in assay [2]; 0.196 µM in assay [3]; 1.75 µM in assay [4]; 5.59 µM in assay [5]; 12.4 µM in assay [6]. For the same molecule, the GI50 was 0.563 µM in assay [7], 0.129 µM in assay [8], 7.7 µM in assay [9] and 13.1 µM in assay [10]. Further, the TGI in [1] is 2.04 µM; in assay [2] it was 26.7 µM; in assay [3], 1.25 µM; in assay [4] it was 10.6 µM; in assay [5], 20.9 µM; in [6], 29.1 µM. In addition, the TGI in [7] stood at 7.45 µM; in [8] it was 3.77 µM; in assay [9], 21.9 µM; in assay [10], 28.9 µM.

As to `CN(Cc1ccccc1)C(=NC#N)N(Cc1ccccc1)Cc1ccccc1`, the TGI in assay [1] is 94.7 µM; in [2], 39.7 µM; in [3], greater than 100 µM; in assay [4], 40.7 µM; in assay [5], 56.1 µM; in assay [6], greater than 100 µM. For the same molecule, the TGI in assay [7] is 58.6 µM; in assay [8] it was greater than 55.3 µM; in assay [9] it was greater than 87.1 µM; in assay [10], greater than 100 µM.

For the origin of these results see PubChem BioAssay (NCI).
